Reference: article PMC11157491, “Novel Alaninamide Derivatives with Drug-like Potential for Development as Antiseizure and Antinociceptive Therapies—In Vitro and In Vivo Characterization” (ACS Chemical Neuroscience, 2024)

Assays:
[1] = system: mice; test: Maximal electroshock (MES) seizure test; format: in vivo; settings: for antiseizure protection in MES screening / responders at 100 mg/kg: 100 mg/kg i.p., 0.5 h; for antiseizure protection in MES screening: four mice; for responders at 100 mg/kg / ED50: Mus musculus, ip; for responders at 100 mg/kg: read-out: MES: number of mice protected/number of mice tested (converted); for ED50: mice, pretreatment 0.5 h
Description: (§1) Identification and profiling of new ASM candidate compounds are still largely based on predictive animal models of seizures/epilepsy, while a range of in silico and in vitro approaches (i.e., molecular modeling or high throughput screening, etc.) are increasingly used in the early stages of ASM discovery.[31] The Epilepsy Therapy Screening Program (ETSP) of the National Institute of Neurological Disorders and Stroke (NIH, Bethesda, MD) has enabled the discovery of several approved ASMs by focusing on the in vivo testing of compounds synthesized by both academic laboratories and industry.[32] The ETSP provides a broad panel of seizure tests (ca. 30 rodent models), but a subset of them is used for the initial screening of new compounds with potential antiseizure activity. The routinely used seizure models include: (i) the MES test, which is an experimental model of tonic–clonic seizures, (ii) the 6 Hz model (32 mA) of focal seizures, and (iii) the scPTZ model of generalized absence or myoclonic seizures.[33],[34] Consequently, in the current studies, all final compounds 21–36 and 45–48 were initially studied in the MES and the 6 Hz (32 mA) seizure models after intraperitoneal (i.p.) administration at a screening dose of 100 mg/kg in mice at a time point of 0.5 h (the screening group consisted of four mice, and the results obtained are summarized in Table S1).
(§2) These parameters were then used to calculate the protective indexes (PIs, PI = TD50/ED50), which describe the therapeutics window of potential drug candidates. The ED50, TD50, and PI values for the tested compounds together with data of their chemical prototypes KA-11 and KJ-5 and reference ASMs are summarized in Table 2.
(§3) The adult male Albino Swiss mice weighed between 22 and 26 g were used in the in vivo studies. They were housed under standardized housing conditions in colony cages and had free access to food as well as tap water. The animals were left to adapt under laboratory conditions for 7 days. All procedures involving animals and their care were performed in accordance with the current European Community and Polish legislation on animal experimentation.
(§4) In the initial screening studies, four mice per group were randomly assigned to each experimental group (each mouse was used only once). To evaluate the ED50 or TD50 values, four groups consisting of eight animals were injected with various doses of tested compounds. The protective indexes (PIs) for the compounds investigated and reference ASMs were calculated by dividing the TD50 value, as determined in the chimney test, by the respective ED50 value, as determined in the MES, scPTZ, or 6 Hz (32 or 44 mA) tests (PI = TD50/ED50). The PIs are a measure of the potential therapeutic window of the tested agent.
(§5) All substances were suspended in Tween 80 (1% aqueous solution) and administered i.p. as a single injection at a dose of 10 mL/kg. On each day of experimentation, fresh solutions were prepared. The detailed in vivo procedures are described elsewhere: the maximal electroshock seizure test (MES),[60] the subcutaneous pentylenetetrazole seizure test (scPTZ),[61] the 6 Hz psychomotor seizure model (32 and 44 mA),[62] and the chimney test.[63] The reference ASMs were purchased from commercial suppliers: VPA (Sigma-Aldrich, St. Louis, MO), LCS, and LEV (UCB Pharma, Braine l’Alleud, Belgium).

[2] = system: mice; test: 6 Hz (32 mA) psychomotor seizure model; format: in vivo; settings: Mus musculus, ip; for responders at 100 mg/kg: 100 mg/kg i.p., 0.5 h; for ED50: mice, pretreatment 0.5 h
Description: as §1, §2, §3, §4, §5

[3] = system: mice; test: Subcutaneous pentylenetetrazole (scPTZ) seizure test; format: in vivo; settings: for protection in scPTZ screening / scPTZ: number of mice protected/number of mice tested: 100 mg/kg i.p.; for scPTZ: number of mice protected/number of mice tested: 0.5 h
Description: as §2, §4, §5

[4] = target: T1, TRPV1 (VR1) (h) (Homo sapiens, UniProt Q8NER1); test: TRPV1 antagonist effect functional assay; format: cell-based; settings: human recombinant CHO cells; for inhibition at 10 µM: read-out: % inhibition of control agonist response
T1 construct: Eurofins (contract assay)
T1 sequence (Q8NER1 whole entry): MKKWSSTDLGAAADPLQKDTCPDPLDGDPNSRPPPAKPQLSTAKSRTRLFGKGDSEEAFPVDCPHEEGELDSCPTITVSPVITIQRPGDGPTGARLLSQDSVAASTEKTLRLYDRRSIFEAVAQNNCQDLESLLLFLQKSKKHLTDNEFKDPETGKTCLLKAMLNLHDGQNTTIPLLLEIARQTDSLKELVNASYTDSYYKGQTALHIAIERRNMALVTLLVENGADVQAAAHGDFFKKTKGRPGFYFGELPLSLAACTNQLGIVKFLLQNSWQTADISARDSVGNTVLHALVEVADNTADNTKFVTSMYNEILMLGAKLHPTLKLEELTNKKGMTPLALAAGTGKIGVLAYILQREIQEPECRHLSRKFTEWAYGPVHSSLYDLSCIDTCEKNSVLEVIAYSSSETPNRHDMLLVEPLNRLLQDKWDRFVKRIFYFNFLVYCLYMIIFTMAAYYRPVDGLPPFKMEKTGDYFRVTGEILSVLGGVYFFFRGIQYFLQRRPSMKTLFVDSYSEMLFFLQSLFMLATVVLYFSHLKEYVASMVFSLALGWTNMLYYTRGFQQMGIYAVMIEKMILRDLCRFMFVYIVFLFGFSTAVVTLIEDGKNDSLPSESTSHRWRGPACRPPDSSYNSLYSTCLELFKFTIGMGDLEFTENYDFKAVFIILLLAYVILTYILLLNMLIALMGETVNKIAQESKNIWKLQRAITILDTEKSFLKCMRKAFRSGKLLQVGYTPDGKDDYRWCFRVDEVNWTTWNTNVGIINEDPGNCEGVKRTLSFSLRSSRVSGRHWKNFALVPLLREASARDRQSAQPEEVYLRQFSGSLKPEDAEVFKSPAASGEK
Procedure: For many years, the TRPV1 channel, permeable to calcium and sodium ions, has been recognized as a promising molecular target for novel analgesics.[19] […] Therefore, bearing in mind the involvement of TRPV1 in pain sensation and potentially in seizure induction, in the next step of the in vitro studies, the TRPV1 antagonist activity was determined for all compounds obtained (Table 6).
Binding/functional studies were carried out commercially in Eurofins Laboratories (Poitiers, France) and Eurofins Panlabs Discovery Services Taiwan, Ltd. (New Taipei City, Taiwan) using testing procedures that were reported previously (for details, see Table S2).
Table S2. Radioligand binding and functional assays. […]
TRPV1 (VR1) (h) (antagonist effect) […]
Assays were performed commercially in Eurofins Laboratories ( Poitiers, France) or Eurofins Panlabs Discovery Services
Taiwan, Ltd. (New Taipei City, Taiwan).

[5] = four mice, read-out: protection in 6 Hz (32 mA) screening
[6] = read-out: 6 Hz (32 mA): number of mice protected/number of mice tested (converted)

inhibition at 10 µM [4] | Kb [4] | melting point | Compound | antiseizure protection in MES screening [1] | responders at 100 mg/kg [1] | ED50 [1] | responders at 100 mg/kg [2, 5] | responders at 100 mg/kg [2, 6] | ED50 [2] | protection in scPTZ screening [3] | scPTZ: number of mice protected/number of mice tested [3] | ED50 ([3]; Mus musculus, ip, mice)
51.5% | 4.5 µM | 152.1 to 152.9 °C | CC(=O)NC(C)C(=O)N1CCN(c2ccc(Cl)c(Cl)c2)CC1 (stereo not shown) [Compound 24, N-(1-(4-(3,4-Dichlorophenyl)piperazin-1-yl)-1-oxopropan-2-yl)acetamide] | 75% | 75% | > 150 mg/kg | 100% | 100% | 41.4 mg/kg | 75% | 3/4 | 116 mg/kg
-11.6% |  | 176.6 to 177.8 °C | CC(=O)NC(C)C(=O)NC1CCN(c2ccccc2)C1 (stereo not shown) [Compound 45, 2-Acetamido-N-(1-phenylpyrrolidin-3-yl)propanamide] |  | 0% |  |  | 0% |  |  |  | 
-15.9% |  | 132.8 to 133.3 °C | CC(=O)NC(C)C(=O)N1CCN(c2ccc(C(F)(F)F)cc2)CC1 (stereo not shown) [Compound 27, N-(1-oxo-1-(4-(4-(Trifluoromethyl)phenyl)piperazin-1-yl)propan-2-yl)acetamide] | 25% | 25% |  |  | 0% |  |  |  | 
-11.7% |  | 145.1 to 146.2 °C | CCNC(=O)NC(C)C(=O)N1CCN(c2cccc(Cl)c2)CC1 (stereo not shown) [Compound 33, 1-(1-(4-(3-Chlorophenyl)piperazin-1-yl)-1-oxopropan-2-yl)-3-ethylurea] |  | 0% |  |  | 50% |  |  |  | 
104% | 4.2 µM | 133.6 to 134.3 °C | CC(=O)NC(C)C(=O)N1CCN(c2cccc(Oc3ccccc3)c2)CC1 (stereo not shown) [Compound 29, N-(1-oxo-1-(4-(3-Phenoxyphenyl)piperazin-1-yl)propan-2-yl)acetamide] |  | 100% | 39.9 mg/kg | 75% | 75% | 41.2 mg/kg | no activity | 0/4 | 
-10% |  | 162.8 to 163.7 °C | CC(=O)NC(C)C(=O)NC1CCN(c2cccc(C(F)(F)F)c2)C1 (stereo not shown) [Compound 46, 2-Acetamido-N-(1-(3-(trifluoromethyl)phenyl)pyrrolidin-3-yl)propanamide] |  | 0% |  |  | 0% |  |  |  | 
12.5% |  | 125.8 to 126.5 °C | CC(=O)NC(C)C(=O)N1CCN(c2cccc(Cl)c2)CC1 (stereo not shown) [Compound 22, N-(1-(4-(3-Chlorophenyl)piperazin-1-yl)-1-oxopropan-2-yl)acetamide] | 100% | 100% | 122 mg/kg | 75% | 75% | 77.3 mg/kg | 25% | 1/4 | 
-11.9% |  | 147.4 to 148.2 °C | CC(C)NC(=O)NC(C)C(=O)N1CCN(c2cccc(Cl)c2)CC1 (stereo not shown) [Compound 35, 1-(1-(4-(3-Chlorophenyl)piperazin-1-yl)-1-oxopropan-2-yl)-3-isopropylurea] |  | 0% |  |  | 50% |  |  |  | 
-16.1% |  | 165.8 to 166.5 °C | CC(NC(=O)c1ccccc1)C(=O)N1CCN(c2cccc(C(F)(F)F)c2)CC1 (stereo not shown) [Compound 32, N-(1-oxo-1-(4-(3-(Trifluoromethyl)phenyl)piperazin-1-yl)propan-2-yl)benzamide] |  | 0% |  | 25% | 25% |  |  |  | 
4.6% |  | 177.8 to 178.5 °C | CC(NC(=O)c1ccccc1)C(=O)N1CCN(c2cccc(Cl)c2)CC1 (stereo not shown) [Compound 31, N-(1-(4-(3-Chlorophenyl)piperazin-1-yl)-1-oxopropan-2-yl)benzamide] |  | 0% |  |  | 0% |  |  |  | 
-13.6% |  | 144.5 to 145.4 °C | CC(C)NC(=O)NC(C)C(=O)N1CCN(c2cccc(C(F)(F)F)c2)CC1 (stereo not shown) [Compound 36, 1-Isopropyl-3-(1-oxo-1-(4-(3-(trifluoromethyl)phenyl)piperazin-1-yl)propan-2-yl)urea] | 25% | 25% |  | 25% | 25% |  |  |  | 
1.6% |  | 113.6 to 114.9 °C | CC(=O)NC(C)C(=O)N1CCN(c2ccccc2)CC1 (stereo not shown) [Compound 21, N-(1-oxo-1-(4-Phenylpiperazin-1-yl)propan-2-yl)acetamide] |  | 0% |  | 25% | 25% |  |  |  | 
12% |  | 110.9 to 111.7 °C | CC(=O)NC(C)C(=O)N1CCN(c2cccc(SC(F)(F)F)c2)CC1 (stereo not shown) [Compound 30, N-(1-oxo-1-(4-(3-((Trifluoromethyl)thio)phenyl)piperazin-1-yl)propan-2-yl)acetamide] |  | 100% | 45.3 mg/kg | 100% | 100% | 39.1 mg/kg | 50% | 2/4 | 
-5.3% |  | 136.4 to 137.3 °C | CCNC(=O)NC(C)C(=O)N1CCN(c2cccc(C(F)(F)F)c2)CC1 (stereo not shown) [Compound 34, 1-Ethyl-3-(1-oxo-1-(4-(3-(trifluoromethyl)phenyl)piperazin-1-yl)propan-2-yl)urea] |  | 0% |  |  | 50% |  |  |  | 
-8.3% |  | 164.8 to 165.9 °C | CC(=O)NC(C)C(=O)NC1CCN(c2cccc(OC(F)(F)F)c2)C1 (stereo not shown) [Compound 47, 2-Acetamido-N-(1-(3-(trifluoromethoxy)phenyl)pyrrolidin-3-yl)propanamide] |  | 0% |  | 50% | 50% |  |  |  | 
4.2% |  | 162.2 to 163.3 °C | CC(=O)NC(C)C(=O)NC1CCN(c2cccc(SC(F)(F)F)c2)C1 (stereo not shown) [Compound 48, 2-Acetamido-N-(1-(3-((trifluoromethyl)thio)phenyl)pyrrolidin-3-yl)propanamide] |  | 0% |  | 50% | 50% |  |  |  | 
-4.6% |  | 144.9 to 145.8 °C | CC(=O)NC(C)C(=O)N1CCN(c2ccc(Cl)cc2)CC1 (stereo not shown) [Compound 23, N-(1-(4-(4-Chlorophenyl)piperazin-1-yl)-1-oxopropan-2-yl)acetamide] |  | 0% |  |  | 0% |  |  |  | 
